Data reported in US20210255184A1, “Biosensor Device and Methods” (The New Zealand Institute for Plant and Food Research …, priority 2018, published 2021).
“Also recorded” adds a separate entry of the source.

How the values were obtained:
Or10a/Orco = target: T1, Or10a/Orco (Drosophila melanogaster, UniProt Q9VYZ1); assay: QCM-D sensor, Or10a/Orco liposomes; format: biochemical; conditions: 1.6 to 1000 μM in PBS with 1% DMSO
T1 construct: his-tag; made in house; host or cells: baculovirus-infected Sf9 cells
T1 sequence (Q9VYZ1 1-406): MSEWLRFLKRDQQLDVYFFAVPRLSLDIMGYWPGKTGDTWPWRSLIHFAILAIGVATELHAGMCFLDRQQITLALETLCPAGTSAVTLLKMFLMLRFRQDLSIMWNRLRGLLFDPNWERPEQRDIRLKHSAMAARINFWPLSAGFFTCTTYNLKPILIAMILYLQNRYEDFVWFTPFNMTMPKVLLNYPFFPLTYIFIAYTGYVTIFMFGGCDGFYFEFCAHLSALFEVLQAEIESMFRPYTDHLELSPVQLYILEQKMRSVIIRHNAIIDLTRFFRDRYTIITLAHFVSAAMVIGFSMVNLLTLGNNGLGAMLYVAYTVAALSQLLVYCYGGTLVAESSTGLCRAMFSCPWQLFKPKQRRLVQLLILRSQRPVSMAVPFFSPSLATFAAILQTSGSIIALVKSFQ
T1 sequence (Q9VNB5 1-486 partner): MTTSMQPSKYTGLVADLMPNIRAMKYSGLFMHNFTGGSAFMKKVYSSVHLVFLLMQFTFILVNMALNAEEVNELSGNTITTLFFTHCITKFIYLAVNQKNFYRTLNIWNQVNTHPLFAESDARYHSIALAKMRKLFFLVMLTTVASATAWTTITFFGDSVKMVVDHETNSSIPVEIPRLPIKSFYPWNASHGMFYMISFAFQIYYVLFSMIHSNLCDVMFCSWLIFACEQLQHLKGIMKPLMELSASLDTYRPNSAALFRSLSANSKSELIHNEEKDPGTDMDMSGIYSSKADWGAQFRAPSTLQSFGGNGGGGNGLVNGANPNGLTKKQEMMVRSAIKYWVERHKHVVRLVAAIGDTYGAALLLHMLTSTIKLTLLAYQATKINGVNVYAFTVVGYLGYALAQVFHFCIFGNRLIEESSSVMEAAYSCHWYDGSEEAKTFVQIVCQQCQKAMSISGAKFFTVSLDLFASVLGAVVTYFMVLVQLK
Protocol: Gold (100 nm) sensor crystals were sonicated in ethanol and milli-Q water for 15 minutes each respectively. A 5:1:1 volume ratio of milli-Q water, ammonia (25%), and hydrogen peroxide (30%) was heated to 75° C. for 5 minutes and the sonicated crystals were placed in the heated solution for 5 minutes. Then the crystals were removed from the solution and rinsed with milli-Q water before drying with nitrogen gas. The clean gold crystals were thiol-functionalized by exposing them to 2 mM ethanolic solution of MHA overnight followed by washing with ethanol solution in order to remove excess or loosely bound molecules. NHS/EDC was prepared using 2:1 mol:mol ratio of EDC:NHS (100 mM EDC, 50 mM NHS) in 2 ml PBS (pH=6.5) solution. Each OrX/liposome stock solution was diluted 100 fold for QCM-D measurements in PBS buffer solution (pH=7.4). The SAM functionalized crystals were then placed into the Q-sense analyser instrument (Biolin Scientific) chamber and flowed with the NHS/EDC, Or10a/liposomes or Or10a/Orco liposomes, and various concentrations of methyl hexanoate (1.6 μM, 8 μM, 20 μM, 40 μM, 100 μM, 200 μM, 500 μM and 1000 μM) in PBS buffer solution containing 1% DMSO to measure the changes in frequency (Δf) and dissipation (ΔD) values.

Orco = target: T2, Orco (Drosophila melanogaster, UniProt Q9VNB5); assay: GFET sensor, Orco liposomes (control); format: biochemical; conditions: Orco only liposomes
T2 construct: his-tag; made in house; host or cells: baculovirus-infected Sf9 cells
T2 sequence (Q9VNB5 1-486): T1 sequence (Q9VNB5 1-486 partner)
Protocol: The OR liposomes were functionalised onto the graphene surface via a non-covalent route using PBASE as the molecular linker as shown in FIG. 13. The OR liposomes were diluted at 1:10 ratio with 1×PBS (pH7.4). The cleaned GFETs were immersed in 1 mM PBASE solution in methanol for 1 hour. The devices were washed three times in methanol and subsequently washed three times in 1×PBS to remove the excess PBASE and residual methanol in the channel respectively. The OR liposomes were diluted 1:10 with 1×PBS (pH 7.4) and 100 μL of the OR dilution was placed in the graphene channel and incubated at room temperature for one hour in a closed petri dish. After OR liposome functionalization, the devices were washed in 1×PBS for 10 s before measurements.
The OR liposome immobilised GFET device with a PDMS well mounted on it was placed onto the probe station and the source and drain connections were made by micromanipulators. 100 μl of PBS containing 1% dimethyl sulfoxide (DMSO) was added to the well and the Ag/AgCl standard electrode was placed into the buffer. The stock solution of ligands at 100 mM concentrations were prepared by dissolving them in DMSO as they are not stable in aqueous buffer. The stock solution was stored at 4° C. The ligand solution for sensing was prepared by diluting the stock solution in 1×PBS buffer containing 1% DMSO to set concentrations from 10 fM to 100 pM. […]

SMILES	change in oscillation frequency on ligand exposure (Or10a/Orco)	sensor response to target ligand (Orco)
CCCCCC(=O)OC [methyl hexanoate]	negligible response; also recorded: not observed	lack of response
COC(=O)c1ccccc1O [methyl salicylate]	greater response; also recorded: increase in the frequency	lack of response
